From PMC3961306, “Comparison of the Cancer Gene Targeting and Biochemical Selectivities of All Targeted Kinase Inhibitors Approved for Clinical Use” (PLoS ONE, 2014)

What was measured:
Assay in all cases: Kinase profiling in a biochemical assay panel (mobility shift assays and ELISA), %-inhibition at 1 μM; selectivity entropy
[1] = target: T1, panel of more than 300 wild-type and mutant kinases (313 kinase panel) (Homo sapiens, UniProt O15264); conditions: kinase p38δ; 1 μM
T1 sequence (O15264 1-365): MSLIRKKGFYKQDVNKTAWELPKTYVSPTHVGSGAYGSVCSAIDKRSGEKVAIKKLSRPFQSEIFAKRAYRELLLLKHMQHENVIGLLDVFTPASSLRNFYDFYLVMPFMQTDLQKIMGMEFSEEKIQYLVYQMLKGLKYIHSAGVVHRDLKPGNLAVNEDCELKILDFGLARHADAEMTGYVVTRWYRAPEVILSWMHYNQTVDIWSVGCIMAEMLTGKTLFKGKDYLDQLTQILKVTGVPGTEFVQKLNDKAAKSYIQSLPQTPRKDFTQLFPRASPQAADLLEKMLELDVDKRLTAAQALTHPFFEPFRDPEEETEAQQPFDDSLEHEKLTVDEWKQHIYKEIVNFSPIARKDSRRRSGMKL

[2] = target: panel of more than 300 wild-type and mutant kinases (313 kinase panel) (Homo sapiens, UniProt P06493); conditions: kinase CDC2/CycB1; 1 μM compound
[3] = target: panel of more than 300 wild-type and mutant kinases (313 kinase panel) (Homo sapiens, UniProt P07949); conditions: 1 µM
[4] = target: panel of more than 300 wild-type and mutant kinases (313 kinase panel) (Homo sapiens, UniProt P11802)
[5] = target: panel of more than 300 wild-type and mutant kinases (313 kinase panel) (Homo sapiens, UniProt P48729)
[6] = target: panel of more than 300 wild-type and mutant kinases (313 kinase panel) (Homo sapiens, UniProt P49840); conditions: kinase GSK3α; compound at 1 μM
[7] = target: panel of more than 300 wild-type and mutant kinases (313 kinase panel) (Homo sapiens, UniProt Q13131)
[8] = target: panel of more than 300 wild-type and mutant kinases (313 kinase panel) (Homo sapiens, UniProt Q13164); conditions: kinase Erk5; compound at 1 μM
[9] = target: T2, panel of more than 300 wild-type and mutant kinases (313 kinase panel) (Homo sapiens, UniProt Q16832); conditions: kinase DDR2; compound at 1 μM
T2 sequence (Q16832 22-855): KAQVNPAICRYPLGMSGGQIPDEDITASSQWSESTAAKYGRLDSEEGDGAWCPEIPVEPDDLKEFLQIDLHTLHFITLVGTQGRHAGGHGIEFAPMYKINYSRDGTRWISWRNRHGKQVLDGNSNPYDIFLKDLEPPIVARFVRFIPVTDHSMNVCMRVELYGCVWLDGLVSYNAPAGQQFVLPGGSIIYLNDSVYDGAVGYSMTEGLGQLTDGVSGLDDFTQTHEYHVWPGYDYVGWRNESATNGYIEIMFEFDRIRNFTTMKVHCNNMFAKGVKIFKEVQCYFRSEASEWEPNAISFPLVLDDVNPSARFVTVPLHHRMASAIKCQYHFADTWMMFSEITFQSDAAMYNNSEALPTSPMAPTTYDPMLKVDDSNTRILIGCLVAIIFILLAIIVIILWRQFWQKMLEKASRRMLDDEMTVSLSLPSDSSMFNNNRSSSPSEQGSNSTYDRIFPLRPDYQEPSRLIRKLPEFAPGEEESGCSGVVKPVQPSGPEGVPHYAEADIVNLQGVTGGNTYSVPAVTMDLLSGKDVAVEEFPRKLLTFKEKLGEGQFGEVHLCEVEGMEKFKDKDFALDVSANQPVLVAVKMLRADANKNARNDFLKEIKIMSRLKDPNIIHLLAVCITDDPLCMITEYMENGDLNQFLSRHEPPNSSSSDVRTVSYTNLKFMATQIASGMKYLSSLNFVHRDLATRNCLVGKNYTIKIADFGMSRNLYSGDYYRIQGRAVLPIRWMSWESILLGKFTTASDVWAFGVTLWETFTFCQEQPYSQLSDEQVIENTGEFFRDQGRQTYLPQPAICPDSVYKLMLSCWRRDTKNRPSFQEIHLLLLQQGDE

Chain of panel of more than 300 wild-type and mutant kinases (313 kinase panel) (Homo sapiens, UniProt Q13131) (Q13131 whole entry, change not shown): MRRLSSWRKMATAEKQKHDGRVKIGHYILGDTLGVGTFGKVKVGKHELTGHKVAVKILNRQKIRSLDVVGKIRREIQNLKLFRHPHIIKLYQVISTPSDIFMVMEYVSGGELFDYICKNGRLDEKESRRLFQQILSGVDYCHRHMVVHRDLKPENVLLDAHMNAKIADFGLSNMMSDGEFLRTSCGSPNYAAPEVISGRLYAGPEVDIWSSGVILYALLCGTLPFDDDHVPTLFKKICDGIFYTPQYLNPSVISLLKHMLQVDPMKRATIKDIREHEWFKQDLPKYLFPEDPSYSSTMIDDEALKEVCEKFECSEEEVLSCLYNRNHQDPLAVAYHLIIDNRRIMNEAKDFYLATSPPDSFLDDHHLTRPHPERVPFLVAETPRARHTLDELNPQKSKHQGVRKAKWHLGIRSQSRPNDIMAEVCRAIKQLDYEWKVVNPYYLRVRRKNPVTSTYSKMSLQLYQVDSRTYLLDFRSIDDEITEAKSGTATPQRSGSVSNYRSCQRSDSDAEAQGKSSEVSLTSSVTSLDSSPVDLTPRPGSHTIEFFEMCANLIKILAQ
Chain of panel of more than 300 wild-type and mutant kinases (313 kinase panel) (Homo sapiens, UniProt P07949) (P07949 29-1114, change not shown): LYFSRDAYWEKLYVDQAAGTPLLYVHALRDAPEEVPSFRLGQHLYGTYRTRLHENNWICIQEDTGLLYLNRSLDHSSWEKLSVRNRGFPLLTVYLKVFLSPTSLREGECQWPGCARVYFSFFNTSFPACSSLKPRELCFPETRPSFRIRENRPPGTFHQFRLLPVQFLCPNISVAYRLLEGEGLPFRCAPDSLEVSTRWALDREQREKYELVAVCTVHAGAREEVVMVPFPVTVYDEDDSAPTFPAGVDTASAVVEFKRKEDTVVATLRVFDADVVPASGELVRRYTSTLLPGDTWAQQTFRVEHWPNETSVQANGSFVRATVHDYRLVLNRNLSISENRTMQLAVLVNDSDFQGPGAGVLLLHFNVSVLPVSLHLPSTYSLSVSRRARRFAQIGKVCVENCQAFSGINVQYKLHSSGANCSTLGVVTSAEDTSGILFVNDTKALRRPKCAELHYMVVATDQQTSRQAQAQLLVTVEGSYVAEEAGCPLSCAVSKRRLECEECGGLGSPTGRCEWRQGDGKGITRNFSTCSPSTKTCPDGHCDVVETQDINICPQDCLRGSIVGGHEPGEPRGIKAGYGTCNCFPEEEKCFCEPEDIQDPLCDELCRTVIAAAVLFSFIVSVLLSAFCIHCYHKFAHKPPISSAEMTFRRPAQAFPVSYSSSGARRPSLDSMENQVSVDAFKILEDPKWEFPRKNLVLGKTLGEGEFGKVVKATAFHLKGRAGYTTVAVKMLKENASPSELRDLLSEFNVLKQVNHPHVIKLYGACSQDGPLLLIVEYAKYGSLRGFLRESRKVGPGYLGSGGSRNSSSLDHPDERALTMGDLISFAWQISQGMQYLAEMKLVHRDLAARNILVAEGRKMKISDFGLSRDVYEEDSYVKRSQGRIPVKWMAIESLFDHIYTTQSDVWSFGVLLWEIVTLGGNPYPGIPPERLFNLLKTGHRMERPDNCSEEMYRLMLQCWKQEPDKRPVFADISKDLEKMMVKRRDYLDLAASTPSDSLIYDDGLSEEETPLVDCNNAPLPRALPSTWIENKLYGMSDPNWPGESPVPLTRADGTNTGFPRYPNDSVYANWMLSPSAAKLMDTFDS
Chain of panel of more than 300 wild-type and mutant kinases (313 kinase panel) (Homo sapiens, UniProt P11802) (P11802 whole entry, change not shown): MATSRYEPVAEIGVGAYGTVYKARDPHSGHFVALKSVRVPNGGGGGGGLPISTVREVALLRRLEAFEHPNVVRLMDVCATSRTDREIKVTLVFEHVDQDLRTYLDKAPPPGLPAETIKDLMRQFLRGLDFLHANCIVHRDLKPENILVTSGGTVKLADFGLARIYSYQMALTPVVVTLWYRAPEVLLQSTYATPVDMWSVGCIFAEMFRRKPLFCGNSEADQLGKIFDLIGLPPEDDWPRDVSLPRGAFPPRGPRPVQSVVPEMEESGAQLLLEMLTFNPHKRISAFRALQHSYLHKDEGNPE

| Structure (SMILES) | %-inhibition of p38δ [1] [%] | %-inhibition, CDC2/CycB1 [2] [%] | %-inhibition of RET [3] [%] | %-inhibition, CDK4/CycD3 ([4]; kinase CDK4/CycD3, 1 μM compound) [%] | %-inhibition, CK1α ([5]; kinase CK1α, 1 μM compound) [%] | %-inhibition of GSK3α [6] [%] | %-inhibition, AMPKα1/β1/γ1 ([7]; kinase AMPKα1/β1/γ1, 1 μM compound) [%] | %-inhibition of Erk5 [8] [%] | %-inhibition of DDR2 [9] [%] | %-inhibition, CDK4/CycD3 ([4]; 1 µM) [%] | %-inhibition, CK1α ([5]; 1 µM) [%] | %-inhibition, AMPKα1/β1/γ1 ([7]; 1 µM) [%] |
| --- | --- | --- | --- | --- | --- | --- | --- | --- | --- | --- | --- | --- |
| CNC(=O)c1cc(Oc2ccc(NC(=O)Nc3ccc(Cl)c(C(F)(F)F)c3)c(F)c2)ccn1 [regorafenib] | 2.22 | 0.529 | 102 | 6.52 | -7.56 | 37 | -0.723 | 16 | 102 | – | – | – |
| Cc1cn(-c2cc(NC(=O)c3ccc(C)c(Nc4nccc(-c5cccnc5)n4)c3)cc(C(F)(F)F)c2)cn1 [nilotinib] | -10 | 1 | 31 | – | – | -0.491 | – | -3.64 | 102 | -4 | 2 | -12 |
